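Five concentrations, 48 hours, 96-well plates. The concentration for 50% growth inhibition is given as GI50.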 The source made the active and inactive calls. Rule as the data show it: active = GI50 up to about 1.1 µM and inactive = higher.
How the values were obtained:
Assay in all cases: NCI-60 cell line screen, 48 h
NCI-H226 = system: NCI-H226
786-0 = system: 786-0
K562 = system: K562
SK-MEL-28 = system: SK-MEL-28
CAKI-1 = system: CAKI-1
HCT-15 = system: HCT-15
T47D = system: T47D
SN12C = system: SN12C
IGROV-1 = system: IGROV-1
MOLT-4 = system: MOLT-4
SK-OV-3 = system: SK-OV-3
NCI-H522 = system: NCI-H522
NCI/ADR-RES = system: NCI/ADR-RES
Malme-3M = system: Malme-3M
HL-60 = system: HL-60
HOP-92 = system: HOP-92
BT-549 = system: BT-549
A498 = system: A498
UACC-257 = system: UACC-257
MCF7 = system: MCF7
DU-145 = system: DU-145
SF-268 = system: SF-268
CCRF-CEM = system: CCRF-CEM
MDA-N = system: MDA-N
SNB-75 = system: SNB-75
PC-3 = system: PC-3
U-251 = system: U-251
HOP-62 = system: HOP-62
OVCAR-8 = system: OVCAR-8
A549 = system: A549
SK-MEL-2 = system: SK-MEL-2
SF-295 = system: SF-295
EKVX = system: EKVX
UACC-62 = system: UACC-62
ACHN = system: ACHN
RXF 393 = system: RXF 393
RPMI-8226 = system: RPMI-8226
M14 = system: M14
Hs-578T = system: Hs-578T
OVCAR-3 = system: OVCAR-3
SK-MEL-5 = system: SK-MEL-5
LOX IMVI = system: LOX IMVI
TK-10 = system: TK-10
MDA-MB-435 = system: MDA-MB-435
HCT-116 = system: HCT-116
HT-29 = system: HT-29
SNB-19 = system: SNB-19
HCC 2998 = system: HCC 2998
SF-539 = system: SF-539
MDA-MB-231 = system: MDA-MB-231
NCI-H23 = system: NCI-H23
UO-31 = system: UO-31
SW-620 = system: SW-620
COLO 205 = system: COLO 205
OVCAR-4 = system: OVCAR-4
OVCAR-5 = system: OVCAR-5
SR = system: SR
KM12 = system: KM12
NCI-H460 = system: NCI-H460

Measured: GI50

c1n[nH]cc1C12C3C4C5C3C1C5C42 (stereo not drawn)
inactive: NCI-H226 > 100 µM | 786-0 > 100 µM | K562 > 100 µM | SK-MEL-28 > 100 µM | CAKI-1 > 100 µM | T47D 85.3 µM | SN12C > 100 µM | IGROV-1 > 100 µM | MOLT-4 > 100 µM | SK-OV-3 > 100 µM | NCI-H522 > 100 µM | NCI/ADR-RES > 100 µM | Malme-3M > 100 µM | HL-60 75.9 µM | HOP-92 65.6 µM | BT-549 > 100 µM | A498 > 100 µM | UACC-257 > 100 µM | MCF7 > 100 µM | DU-145 > 100 µM | SF-268 > 100 µM | CCRF-CEM > 100 µM | MDA-N > 100 µM | SNB-75 69.2 µM | PC-3 > 100 µM | U-251 > 100 µM | HOP-62 > 100 µM | OVCAR-8 > 100 µM | A549 > 100 µM | SK-MEL-2 > 100 µM | SF-295 > 100 µM | EKVX 85.7 µM | UACC-62 > 100 µM | ACHN > 100 µM | RXF 393 > 100 µM | RPMI-8226 > 100 µM | M14 > 100 µM | Hs-578T > 100 µM | OVCAR-3 > 100 µM | SK-MEL-5 > 100 µM | LOX IMVI > 100 µM | TK-10 > 100 µM | MDA-MB-435 > 100 µM | HCT-116 > 100 µM | HT-29 > 100 µM | SNB-19 > 100 µM | HCC 2998 > 100 µM | SF-539 > 100 µM | MDA-MB-231 > 100 µM | NCI-H23 > 100 µM | UO-31 > 100 µM | SW-620 > 100 µM | COLO 205 > 100 µM | OVCAR-4 > 100 µM | OVCAR-5 94.6 µM | SR > 100 µM | KM12 > 100 µM
> 100 µM: HCT-15

CN1CCc2c3n(c4cc(Br)ccc24)[C@H](O)CCCC31 (stereo partly drawn)
inactive: NCI-H226 > 10 µM | 786-0 1.7 µM | K562 1.37 µM | SK-MEL-28 1.72 µM | CAKI-1 2.99 µM | T47D > 10 µM | SN12C > 7.16 µM | IGROV-1 > 7.11 µM | MOLT-4 1.95 µM | SK-OV-3 > 10 µM | NCI-H522 1.49 µM | NCI/ADR-RES 4.97 µM | Malme-3M 2.04 µM | HL-60 1.85 µM | HOP-92 3.61 µM | BT-549 > 10 µM | A498 4.11 µM | UACC-257 2.25 µM | MCF7 1.78 µM | DU-145 > 10 µM | SF-268 > 9.31 µM | CCRF-CEM 1.87 µM | MDA-N 1.82 µM | SNB-75 2.3 µM | PC-3 5.89 µM | U-251 1.85 µM | HOP-62 > 10 µM | OVCAR-8 1.79 µM | A549 > 5.86 µM | SF-295 1.77 µM | EKVX > 10 µM | ACHN > 10 µM | RXF 393 2.59 µM | RPMI-8226 2.4 µM | M14 1.79 µM | Hs-578T 2.15 µM | NCI-H460 1.6 µM | OVCAR-3 > 7.5 µM | SK-MEL-5 3.18 µM | LOX IMVI 1.74 µM | TK-10 > 7.36 µM | MDA-MB-435 1.8 µM | HCT-116 1.69 µM | HT-29 1.81 µM | SNB-19 > 10 µM | HCC 2998 1.75 µM | SF-539 1.9 µM | MDA-MB-231 2.13 µM | NCI-H23 > 10 µM | UO-31 > 7.52 µM | SW-620 1.96 µM | COLO 205 1.78 µM | OVCAR-4 2.67 µM | OVCAR-5 > 5.18 µM | SR 1.93 µM | KM12 2.38 µM
2.62 µM: HCT-15
active: SK-MEL-2 0.736 µM

N#CC(C#N)=CNC(N)=S
inactive: NCI-H226 > 100 µM | 786-0 > 100 µM | K562 > 100 µM | SK-MEL-28 > 100 µM | CAKI-1 > 100 µM | T47D > 100 µM | SN12C > 100 µM | IGROV-1 > 100 µM | MOLT-4 > 100 µM | SK-OV-3 > 100 µM | NCI-H522 > 100 µM | NCI/ADR-RES > 100 µM | Malme-3M > 100 µM | HL-60 > 100 µM | HOP-92 > 100 µM | BT-549 > 100 µM | A498 > 100 µM | UACC-257 > 100 µM | MCF7 > 100 µM | DU-145 > 100 µM | SF-268 > 100 µM | CCRF-CEM > 100 µM | MDA-N > 100 µM | SNB-75 > 100 µM | PC-3 > 100 µM | U-251 > 100 µM | HOP-62 > 100 µM | OVCAR-8 > 100 µM | A549 > 100 µM | SK-MEL-2 > 100 µM | SF-295 > 100 µM | EKVX > 100 µM | UACC-62 > 100 µM | ACHN > 100 µM | RXF 393 > 100 µM | RPMI-8226 > 100 µM | M14 > 100 µM | Hs-578T > 100 µM | NCI-H460 > 100 µM | OVCAR-3 1.5 µM | SK-MEL-5 > 100 µM | LOX IMVI > 100 µM | MDA-MB-435 > 100 µM | HCT-116 > 100 µM | HT-29 > 100 µM | SNB-19 > 100 µM | HCC 2998 > 100 µM | SF-539 > 100 µM | MDA-MB-231 > 100 µM | NCI-H23 > 100 µM | SW-620 > 100 µM | COLO 205 > 100 µM | OVCAR-4 > 100 µM | OVCAR-5 > 100 µM | SR > 100 µM | KM12 > 100 µM
> 100 µM: HCT-15
